pIC50: −log10 of the molar value. Like-named read-outs stand apart in the source and are kept apart here.
Legend:
[1] = system: HIV-1 strain RT-MDR (V106A); test: microbe, parasite or virus in culture; assay type: cell-based; conditions: for pIC50: read-out: IC50 RT-MDR (V106A); for effectiveness against RT-MDR versus HTLVIIIB: more effective against RT-MDR than against HTLVIIIB
Procedure: (§1) In addition, the anti-HIV activity of the compounds was measured by determining their ability to inhibit the replication of the HIV-1 strains HTLVIIIB, RT-MDR, A17, and A17 variant in peripheral blood mononuclear cells (PBMC) from healthy volunteer donors, using the method described in Uckun et.al., 1998, Antimicrobial Agents and Chemotherapy 42:383.
(§2) Normal human peripheral blood mononuclear cells (PBMNC) from HIV-negative donors were cultured 72 hours in RPMI 1640 supplemented with 20% (v/v) heat-inactivated fetal bovine serum (FBS), 3% interleukin-2,2 mM L-glutairine, 25 mM HEPES, 2 μL, NAHCO, […] gentamicin, and 4 Ag/mL phytohemagglutinin prior to exposure to HIV-1 or other HIV strain. The cells were then infected with virus at a multiplicity of infection (MOI) of 0.1 during a one-hour adsorption period at 37° C. in a humidified 5% CO2 atmosphere. Subsequently, cells were cultured in 96-well microplates (100 μL/well; 2×10^6 cells/mL, triplicate wells) in the presence of various inhibitor concentrations. Aliquots of culture supernatants were removed from the wells on the 7 th day after infection for p24 antigen p24 enzyme immunoassays (EIA), as previously described in Erice et al., 1993, Antimicrob. Ag. Chemotherapy 37:385-838. The applied p24 EIA was the unmodified kinetic assay commercially available from Coulter Corporation/Immunotech, Inc. (Westbrook, Me.).
(§3) Percent inhibition of viral replication was calculated by comparing the p24 values from the test substance-treated infected cells with p24 values from untreated infected cells (i.e, virus controls).
(§4) RT-MDR was obtained through the AIDS Research and Reference Reagent Program, from Dr. Bendan Larder, and is described in Larder et al., 1993, Nature, 365, 451-453.

[2] = system: HIV-1 strain A17 variant (Y181C, K103N); test: microbe, parasite or virus in culture; assay type: cell-based
Procedure: as §1, §2, §3, §4

[3] = target: T1, purified recombinant HIV RT (Human immunodeficiency virus type 1 group M subtype B, UniProt P04585); test: Purified RT assay, cell-free Quan-T-RT system (scintillation proximity); assay type: biochemical
T1 construct: purified recombinant HIV RT; purchased Amersham, Arlington Heights, Ill; (Quan-T-RT system)
Procedure: The synthesized compounds were tested for RT inhibitory activity (IC50 [rRT]) against purified recombinant HIV RT using the cell-free Quan-T-RT system (Amersham, Arlington Heights, Ill.), which utilizes the scintillation proximity assay principle as decribed in Bosworth, et al., 1989, Nature 341:167-168. In the assay, a DNA/RNA template is bound to SPA beads via a biotin/strepavidin linkage. The primer DNA is a 16-mer oligo(T) which has been annealed to a poly(A) template. The primer/template is bound to a strepavidin-coated SPA bead.
^3 H-TTP is incorporated into the primer by reverse transcription. In brief, ^3 H-TTP, at a final concentration of 0.5 μCi/sample, was diluted in RT assay buffer (49.5 mM Tris-Cl, pH 8.0, 80 mM KCl, 10 Mm MgCl2, 10 mM DTT, 2.5 mM EGTA, 0.05% Nonidet-P-40), and added to annealed DNA/RNA bound to SPA beads. The compound being tested was added to the reaction mixture at 0.001 μM-100 μM concentrations. […] The reaction was stopped by addition of 0.2 ml of 120 mM EDTA. The samples were counted in an open window using a Beckman LS 7600 instrument and IC50 values were calculated by comparing the measurements to untreated samples.

[4] = system: HIV-1 strain A17 (Y181C); test: microbe, parasite or virus in culture; assay type: cell-based; conditions: for pIC50: read-out: IC50 A17 (Y181C)
Procedure: as §1, §2
(§5) Percent inhibition of viral replication was calculated by comparing the p24 values from the test substance-treated infected cells with p24 values from untreated infected cells (i.e, virus controls). […]

[5] = Microculture Tetrazolium Assay (MTA), cytotoxicity; assay type: cell-based
Procedure: A Microculture Tetrazolium Assay (MTA), using 2,3-bis(2-methoxy-4-nitro-5-sulfophenyl)-5-[(phenylamino)-carbonyl]-2H-tetrazolium hydroxide (XTT), was performed to evaluate the cytotoxicity of the compounds, using the methods described, for example, in Uckun et.al., 1998, Antimicrobial Agents and Chemotherapy 42:383; and Mao et.al., 1998, Bioorg. Med. Chem. Lett. 8:2213.

[6] = system: HIV-1 strain HTLVIIIB; test: Inhibition of replication of HIV-1 strain HTLVIIIB in PBMC (p24 antigen EIA); assay type: cell-based
Procedure: as §1, §2, §5

[7] = system: HIV-1 strain HTLVIIIB; conditions: earlier publication (Mao et al.), cited from earlier work; for antiviral potency relative to trovirdine: HTLVIIIB; for abrogated the replication of HTLVIIIB: human PBMC
[8] = system: NNI-resistant HIV-1 strains; conditions: earlier publication (Mao et al., 1999); cited from earlier work
[9] = inhibition of p24 antigen production in PBMC
[10] = inhibition of p24 antigen production in PBMC, read-out: IC50 A17 Varient (Y181C, K103N)
[11] = IC50 rRT, Table 2; recombinant HIV RT
[12] = XTT cytotoxicity, read-out: CC50 MTA
[13] = Human immunodeficiency virus 1, PBMC
[14] = Human immunodeficiency virus 1, PBMC, read-out: IC50 A17 Varient (Y181C, K103N)
[15] = Human immunodeficiency virus 1, IIIB, inhibition of p24 antigen production in PBMC, read-out: IC50 HTLV IIIB
[16] = IC50 rRT, Table 1 and text; recombinant HIV RT
[17] = Table 1 and text; recombinant HIV RT; read-out: IC90 rRT
[18] = Human immunodeficiency virus 1, IIIB, PBMC, read-out: IC50 HTLV IIIB

Cc1cn([C@H]2C[C@H](N=[N+]=[N-])[C@@H](CO)O2)c(=O)[nH]c1=O [AZT, reference compound]
pIC50 [1, 9]: 6.70 | pIC50 [2, 10]: 8.40 | pIC50 [3, 11]: < 4.00 | pIC50 [4, 9]: 8.22 | CC50 [5, 12]: > 100 µM

CC(C)Nc1cccnc1N1CCN(C(=O)c2cc3cc(NS(C)(=O)=O)ccc3[nH]2)CC1 [Delavirdine, reference compound]
pIC50 [1, 13]: 6.40 | pIC50 [2, 14]: < 4.00 | pIC50 [4, 13]: 4.30 | pIC50 [6, 15]: 8.05

S=C(NCCN1CCCCC1)Nc1ccc(Br)cn1 [HI-172, N-[2-(1-piperidinoethyl)]-N'-[2-(5-bromopyridyl)]thiourea]
pIC50 [1, 13]: < 4.00 | pIC50 [2, 14]: < 4.00 | antiviral potency relative to trovirdine [7]: more potent than trovirdine | abrogated the replication of HTLVIIIB [7]: nanomolar concentrations | pIC50 [3, 11]: 6.22 | pIC50 [4, 13]: < 4.00 | pIC50 [6, 15]: > 9.00 | inhibition of replication of NNI-resistant HIV-1 strains [8]: neither compound inhibited the replication | CC50 [5, 12]: > 100 µM

CN1CCCC1CCNC(=S)Nc1ccc(Br)cn1 (stereo not shown) [HI-206, N-[2-(1-methyl-2-pyrrolidinylethyl)]-N'-[2-(5 bromopyridyl)]thiourea]
pIC50 [3, 16]: < 4.00 | IC90 [3, 17]: > 100 µM

S=C(NCCN1CCCC1)Nc1ccc(Br)cn1 [HI-230, N-[2-(1-pyrolidylethyl)]-N'-[2-(5-bromopyridyl)]thiourea]
pIC50 [3, 16]: 5.31 | IC90 [3, 17]: > 100 µM

Fc1ccccc1CCNC(=S)Nc1ccc(Br)cn1 [HI-240, N-[2-(2-fluorophenethyl)]-N'-[2-(5-bromopyridyl)]thiourea]
pIC50 [1, 13]: 8.30 | pIC50 [2, 14]: 4.39 | pIC50 [4, 13]: 6.70 | pIC50 [6, 15]: > 9.00 | CC50 [5, 12]: > 100 µM

S=C(NCc1ccc2c(c1)OCO2)Nc1ccc(Br)cn1 [HI-257, N-[2-(1-piperonyl)]-N'-[2-(5-bromopyridyl)]thiourea]
pIC50 [3, 16]: 6.15 | IC90 [3, 17]: > 100 µM

S=C(NCCN1CCNCC1)Nc1ccc(Br)cn1 [HI-258, N-[2-(1-piperizinylethyl)]-N'-[2-(5-bromopyridyl)]thiourea]
antiviral potency relative to trovirdine [7]: more potent than trovirdine | abrogated the replication of HTLVIIIB [7]: nanomolar concentrations | inhibition of replication of NNI-resistant HIV-1 strains [8]: neither compound inhibited the replication

S=C(NCCN1CCOCC1)Nc1ccc(Br)cn1 [HI-276, N-[2-(5-Bromopyridinyl)]-N'-[2-(4-Morpholinoethyl)]thiourea]
pIC50 [3, 16]: < 4.00 | IC90 [3, 17]: > 100 µM

S=C(NCCc1cnc[nH]1)Nc1ccc(Br)cn1 [HI-436, N-[2-(5-Bromopyridinyl)]-N'-[2-(2-Imidazolylethyl)]thiourea]
pIC50 [3, 16]: < 4.00 | IC90 [3, 17]: > 100 µM

S=C(NCCc1c[nH]c2ccccc12)Nc1ccc(Br)cn1 [HI-442, N-[2-(5-Bromopyridinyl)]-N'-[2-(3-Indolylethyl)]thiourea]
pIC50 [3, 16]: 6.05 | IC90 [3, 17]: > 100 µM

S=C(NCCc1cccs1)Nc1ccc(Br)cn1 [HI-443, N-[2-(5-Bromopyridinyl)]-N'-[2-(2-Thiophenylethyl)]thiourea]
pIC50 [1, 13]: 8.40 | effectiveness against RT-MDR versus HTLVIIIB [1]: ten | effectiveness against RT-MDR versus HTLVIIIB ([1]; 10080 min): 10 times | potency against RT-MDR relative to AZT ([1]; more potent than AZT): 50 times | potency against RT-MDR relative to HI-172 ([1]; more potent than HI-172): 25,000 times | potency against RT-MDR relative to HI-240 ([1]; more potent than HI-240): 1.25 times | potency against RT-MDR relative to MKC-442 ([1]; more potent than MKC-442): 75 times | potency against RT-MDR relative to delavirdine ([1]; more potent than delavirdine): 100 times | potency against RT-MDR relative to nevirapine ([1]; more potent than nevirapine): 1250 times | potency against RT-MDR relative to trovirdine ([1]; more potent than trovirdine): 5 times | pIC50 ([2]; Human immunodeficiency virus 1, PBMC, read-out: IC50, A17 variant replication): 5.49 | pIC50 [2, 14]: 5.49 | potency against A17 variant versus HTLVIIIB ([2]; fold lower potency than HTLVIIIB, 10080 min): 100 fold | pIC50 [3, 16]: 6.10 | pIC50 [3, 11]: 5.28 | IC90 [3, 17]: 15 µM | IC90 ([3]; read-out: IC90 rRT; Table 1 and text; recombinant HIV RT): 12 µM | inhibited recombinant RT in vitro ([3]; recombinant RT in vitro): more than 90% | pIC50 [4, 13]: 7.32 | potency against A17 relative to HI-172 ([4]; more potent than HI-172): 2083 times | potency against A17 relative to HI-240 ([4]; more potent than HI-240): 4.2 times | potency against A17 relative to delavirdine ([4]; more potent than delavirdine): 1042 times | potency against A17 relative to nevirapine ([4]; more potent than nevirapine): 2083 times | potency against A17 relative to trovirdine ([4]; more potent than trovirdine): 10 times | pIC50 [6, 18]: 7.52 | pIC50 ([6]; Human immunodeficiency virus 1, PBMC, read-out: average IC50, HTLVIIIB replication): 7.52 | IC50 HTLVIIIB relative to HI-172 ([6]; times higher than IC50 of HI-172): 30 times | IC50 HTLVIIIB relative to trovirdine ([6]; times higher than IC50 of trovirdine): 5 times | CC50 [5, 12]: > 100 µM

S=C(NCc1ccco1)Nc1ccc(Br)cn1 [HI-503, N-[2-(5-Bromopyridinyl)]-N'-[2-(2-Furylmethyl)]thiourea]
pIC50 [3, 16]: 5.92 | IC90 [3, 17]: > 100 µM

CCOCn1c(Cc2ccccc2)c(C(C)C)c(=O)[nH]c1=O [MKC-442, reference compound]
pIC50 [1, 13]: 6.52 | CC50 [5]: > 100 µM

Cc1ccnc2c1NC(=O)c1cccnc1N2C1CC1 [Nevirapine, reference compound]
pIC50 [1, 9]: 5.30 | pIC50 [2, 10]: < 4.00 | pIC50 [4, 9]: < 4.00 | pIC50 [6, 15]: 7.47

S=C(NCCc1ccccn1)Nc1ccc(Br)cn1 [Trovirdine, reference compound]
pIC50 [1, 13]: 7.70 | pIC50 [2, 14]: < 4.00 | IC90 [3, 17]: 12 µM | inhibited recombinant RT in vitro ([3]; recombinant RT in vitro): more than 90% | pIC50 [4, 13]: 6.30 | pIC50 [6, 18]: 8.15 | CC50 [5]: > 100 µM

— US6124324A, “Thiophene-ethyl thiourea compounds and use” (Hughes Institute, priority 1999, dated 2000)
